Consider 29 compounds from patent US20240101531A1, “PYRIDINAMINE DERIVATIVES AND THEIR USE AS POTASSIUM CHANNEL MODULATORS” (Xenon Pharmaceuticals Inc., priority 2022, published 2024).

Where a name gives a salt, the structure may show the parent alone.

In general, EC50 refers to the concentration giving half of the maximal effect.

This experiment deals with human KV7.2/KV7.3 (Homo sapiens (Human), UniProt O43525+O43526). As to the kind of experiment: Potassium flux assay (IPG-2 AM dye). The experiment is classed as cell-based. The following applies: TREX HEK 293 or HEK 293 cells expressing human KV7.2/KV7.3; arithmetic mean values. An outline of the steps: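 EC50 from 16 concentrations (2-fold dilutions, top 30 μM), scaled between DMSO baseline and a known KV7.x modulator maximum. Signal is IPG-2 AM fluorescence (ex 530/em 558 nm) after 10 mM KCl challenge buffer addition, following 20 min room-temperature compound exposure of HEK 293 or TREX HEK 293 cells stably expressing human KV7.2/KV7.3.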
On to `Clc1ccc(Nc2nccc3cc(OCc4cn[nH]c4)ccc23)cn1` [Example 334, 6-((1H-pyrazol-4-yl)methoxy)-N-(6-chloropyridin-3-yl)isoquinolin-1-amine], for which the EC50 is less than 1000 nM.
The same measure for `CO[C@@H](C)c1ccc2c(Nc3ccc(Cl)nc3)nccc2c1` [Example 133, (S)-N-(6-chloropyridin-3-yl)-6-(1-methoxyethyl)isoquinolin-1-amine]: 10000 to 30000 nM; for `COC1(COc2ccc3c(Nc4ccc(Cl)nc4)nccc3c2)CCC1` [Example 288, N-(6-chloropyridin-3-yl)-6-((1-methoxycyclobutyl)methoxy)isoquinolin-1-amine]: less than 1000 nM; for `Clc1ccc(Nc2nccc3cc(OCC4CCCO4)ccc23)cn1` (centres unmarked) [Example 217, N-(6-chloropyridin-3-yl)-6-((tetrahydrofuran-2-yl)methoxy)isoquinolin-1-amine]: 1000 to 10000 nM.
The same measure for `Clc1ccc(Nc2nccc3cc(OC4CCN(Cc5ncccn5)CC4)ccc23)cn1` [Example 314, N-(6-chloropyridin-3-yl)-6-((1-(pyrimidin-2-ylmethyl)piperidin-4-yl)oxy)isoquinolin-1-amine]: 1000 to 10000 nM; for `Clc1ccc(Nc2nccc3cc(OCc4ncccn4)ccc23)cn1` [Example 193, N-(6-chloropyridin-3-yl)-6-(pyrimidin-2-ylmethoxy)isoquinolin-1-amine]: 1000 to 10000 nM; for `Cc1ncsc1C(=O)N[C@H]1CC[C@@H](Oc2ccc3c(Nc4ccc(Cl)nc4)nccc3c2)CC1` [Example 167, N-((1s,4s)-4-((1-((6-chloropyridin-3-yl)amino)isoquinolin-6-yl)oxy)cyclohexyl)-4-methylthiazole-5-carboxamide]: 1000 to 10000 nM.
The same measure for `N#CC1(COc2ccc3c(Nc4cnc(Cl)nc4)nccc3c2)COC1` [Example 208, 3-(((1-((2-chloropyrimidin-5-yl)amino)isoquinolin-6-yl)oxy)methyl)oxetane-3-carbonitrile]: less than 1000 nM.
Regarding `Cc1ncc(Nc2nccc3cc(OCC4(C)COC4)ccc23)cn1` [Example 218, 6-((3-methyloxetan-3-yl)methoxy)-N-(2-methylpyrimidin-5-yl)isoquinolin-1-amine], the EC50 was less than 1000 nM.
The same measure for `Cc1nn(C)cc1COc1ccc2c(Nc3ccc(Cl)nc3)nccc2c1` [Example 165, N-(6-chloropyridin-3-yl)-6-((1,3-dimethyl-1H-pyrazol-4-yl)methoxy)isoquinolin-1-amine]: less than 1000 nM.
The same measure for `CC(Oc1ccc2c(Nc3cnc(Cl)nc3)nccc2c1)C1(C#N)CC1` (centres unmarked) [Example 385, 1-(1-((1-((2-chloropyrimidin-5-yl)amino)isoquinolin-6-yl)oxy)ethyl)cyclopropane-1-carbonitrile]: less than 1000 nM; for `COc1ncc(Nc2nccc3cc(OCC4(F)CC4)ccc23)cn1` [Example 46, 6-((1-fluorocyclopropyl)methoxy)-N-(2-methoxypyrimidin-5-yl)isoquinolin-1-amine]: 1000 to 10000 nM; for `Clc1ccc(Nc2nccc3cc(OCCc4ncccn4)ccc23)cn1` [Example 387, N-(6-chloropyridin-3-yl)-6-(2-(pyrimidin-2-yl)ethoxy)isoquinolin-1-amine]: 1000 to 10000 nM.
Regarding `FC(F)COc1ccc2c(Nc3ccc(Cl)nc3)nccc2c1` [Example 417, N-(6-chloropyridin-3-yl)-6-(2,2-difluoroethoxy)isoquinolin-1-amine], the concentration for a half-maximal effect (EC50) lay in the range of 1000 to 10000 nM.
The same measure for `CN(C)C(=O)/C=C/c1ccc2c(Nc3ccc(Cl)nc3)nccc2c1` [Example 246, (E)-3-(1-((6-chloropyridin-3-yl)amino)isoquinolin-6-yl)-N,N-dimethylacrylamide]: 1000 to 10000 nM; for `FC1(COc2ccc3c(Nc4ccc(Cl)nc4)nccc3c2)CCOC1` (centres unmarked) [Example 363, N-(6-chloropyridin-3-yl)-6-((3-fluorotetrahydrofuran-3-yl)methoxy)isoquinolin-1-amine]: less than 1000 nM; for `CS(=O)(CC1CC1)=Nc1ccc2c(Nc3ccc(Cl)nc3)nccc2c1` (centres unmarked) [Example 269, ((1-((6-chloropyridin-3-yl)amino)isoquinolin-6-yl)imino)(cyclopropylmethyl)(methyl)-λ^6-sulfanone]: 1000 to 10000 nM.
The value for `CNc1cc(Nc2nccc3cc(OCC4(C)COC4)ccc23)cnc1Cl` [Example 162, 2-chloro-N^3-methyl-N^5-(6-((3-methyloxetan-3-yl)methoxy)isoquinolin-1-yl)pyridine-3,5-diamine] was less than 1000 nM.
For `C[C@]1(O)CC[C@@H](Oc2ccc3c(Nc4ccc(Cl)nc4)nccc3c2)CC1` [Example 265, cis-4-((1-((6-chloropyridin-3-yl)amino)isoquinolin-6-yl)oxy)-1-methylcyclohexan-1-ol], the EC50 was less than 1000 nM.
The same measure for `C#CC(C)(C)COc1ccc2c(Nc3ccc(Cl)nc3)nccc2c1` [Example 136, N-(6-chloropyridin-3-yl)-6-((2,2-dimethylbut-3-yn-1-yl)oxy)isoquinolin-1-amine]: 1000 to 10000 nM.
The same measure for `FC(F)c1ccc(Nc2nccc3cc(OCC4(F)CC4)ccc23)cn1` [Example 43, N-(6-(difluoromethyl)pyridin-3-yl)-6-((1-fluorocyclopropyl)methoxy)isoquinolin-1-amine]: not below 30000 nM; for `CC[C@H](OC)c1ccc2c(Nc3ccc(Cl)nc3)nccc2c1` [Example 131, (S)—N-(6-chloropyridin-3-yl)-6-(1-methoxypropyl)isoquinolin-1-amine]: not below 30000 nM.
The value for `N#CC1(COc2ccc3c(Nc4ccc(Cl)nc4)nccc3c2)CC2(COC2)C1` [Example 333, 6-(((1-((6-chloropyridin-3-yl)amino)isoquinolin-6-yl)oxy)methyl)-2-oxaspiro[3.3]heptane-6-carbonitrile] was less than 1000 nM; that for `N#C[C@@H]1CCC[C@@H](Oc2ccc3c(Nc4ccc(Cl)nc4)nccc3c2)C1` [Example 344, (1R,3R)-3-((1-((6-chloropyridin-3-yl)amino)isoquinolin-6-yl)oxy)cyclohexane-1-carbonitrile] was 1000 to 10000 nM.
Consider `Cc1ncc(Nc2nccc3cc(OCc4c[nH]nc4C)ccc23)cn1` [Example 396, 6-((3-methyl-1H-pyrazol-4-yl)methoxy)-N-(2-methylpyrimidin-5-yl)isoquinolin-1-amine], for which the EC50 is less than 1000 nM.
Turning to `C[C@@H](Oc1ccc2c(Nc3ccc(Cl)nc3)nccc2c1)C1(F)CC1` [Example 139, (R)-N-(6-chloropyridin-3-yl)-6-(1-(1-fluorocyclopropyl)ethoxy)isoquinolin-1-amine], the EC50 is 1000 to 10000 nM.
Take `CN1C(=O)CCC1COc1ccc2c(Nc3ccc(Cl)nc3)nccc2c1` (centres unmarked) [Example 53, 5-(((1-((6-chloropyridin-3-yl)amino)isoquinolin-6-yl)oxy)methyl)-1-methylpyrrolidin-2-one]: the EC50 was 1000 to 10000 nM.
For the compound `Clc1ccc(Nc2nccc3ccoc23)cn1` [Example 16, N-(6-chloropyridin-3-yl)furo[2,3-c]pyridin-7-amine formate], the EC50 was in the range of 1000 to 10000 nM.
The same measure for `O[C@@H]1CCC[C@H](Oc2ccc3c(Nc4cnc(Cl)nc4)nccc3c2)C1` (relative stereo) [Example 348, cis-3-((1-((2-chloropyrimidin-5-yl)amino)isoquinolin-6-yl)oxy)cyclohexan-1-ol]: less than 1000 nM.
